This note sets out measurements from US7067500B2, “Betaines as adjuvants to susceptibility testing and antimicrobial therapy” (priority 1997, dated 2006).

The subject of this test is M. tuberculosis isolate 571/573-BAL. Put plainly: Planting in lecithin at low inocula, BACTEC 12B growth curves. In kind it is cell-based, Mycobacterium tuberculosis. As to conditions: CB-18 (17 μg/ml) combined with P/caz; inocula 165±54, 33±11 and 8±3 cfu. The source says: In this experiment the 571/573-BAL isolate was cultivated on 7H11-selective media, serially diluted in NALC/citrate to approximately 1,000×. In an attempt to examine how the inoculum impacted the results of this assay three different stocks were manufactured, one series in buffer and one series in CB-18. […] The planting solutions were manufactured by mixing these three stocks 1:1 with either buffer or a buffered solution of lecithin (Sigma, St. Louis, Mo.; Cat.#: P 5394 (7.5% lecithin was made up as a 100× concentrate in 100% ethanol (3 grams in 40 mls) and diluted in the Tris buffer of Example 1 immediately prior to use)). The final dilutions of three different planting solutions were approximately 5000×, 25,000×, and 100,000×. The final concentration of CB-18 and lecithin in the appropriate planting solutions was approximately 0.5 mM. […] The final concentration of both lecithin and CB-18 during incubation was approximately 17 μg/ml.
Aliquots of the three stocks (i.e., 2,500×, 12,500× and 50,000×) were also taken for quantitative culture by plating on 7H10 plates (Becton Dickinson, Cockeysville, Md.). […] FIG. 5A presents the 5,000× series planted in either buffer or buffer containing lecithin, and FIG. 5B presents the 5,000× series planted in CB-18 or CB-18 combined with lecithin. FIG. 5C presents the 25,000× series planted in either buffer or buffer containing lecithin, and FIG. 5D presents the 25,000× series planted in CB-18 or CB-18 combined with lecithin. FIG. 5E presents the 100,000× series planted in either buffer or buffer containing lecithin, and FIG. 5F presents the 100,000× series planted in CB-18 or CB-18 combined with lecithin.

Where a name gives a salt, the structure may show the parent alone.

For the compound `CCCCCCCCCCCCCCCCCC[N+](C)(C)CCCC(=O)[O-]` [CB-18, N-(3-carboxypropyl)-N,N-dimethyl-1-octadecanaminium, inner salt], the “culture result of replicate bottles” value was “negative”.
